According to patent US20100173780A1, “POLYPHENOL-CONTENT-[…] FOR PLANT” (COSMO OIL CO., LTD., priority 2006, published 2010):

Experiments:
[1] = test system: parsley; test: Amount of polyphenol in parsley after ALA treatment (HPLC); type: in vivo, parsley (Umbelliferae, genus parsley, race Paramount); conditions: 1 ppm
Method: (§1) Two containers (length: 0.75 m, width 0.5 m) were provided and soil was placed in each of them. A Chemical fertilizer (nitrogen content:phosphorus content:potassium content=15:15:15 as mass ratio) was used as a base fertilizer and young plants of green pepper (Solanaceae, genus cayenne, race Miogi) were grown for two months according to a conventional method. Water was applied to the young plants once a day by means of a sprinkling can. Prior to one month from harvest, treatment was conducted once a week with 50 mL per container of each aqueous solution containing 0 ppm (control) or 1 ppm of 5-aminolevulinic acid hydrochloride to which a spreading agent, Approach BI (manufactured by Kao Corporation) had been added in a ratio of 0.1% by mass. After harvest, 3 g of green pepper was finely cut with scissors and a kitchen knife and then homogenized after addition of water. The homogenized one was diluted up to 6 mL with distilled water (stock solution) and the stock solution was divided into three even portions and used in the following extraction methods (1) to (3). (1) Three mL of ethyl acetate was added to 2 mL of the stock solution and the resultant one was centrifuged at 3000 rpm for 10 minutes. The supernatant was transferred to a spit tube and was evaporated to dryness with nitrogen gas while the tube was immersed in a warm bath at about 60° C. Thereto were added 200 μL of methanol and 100 μL of distilled water, thereby the volume being made 300 μL. (2) Two mL of methanol was added to 2 mL of the stock solution and the resultant one was centrifuged at 3000 rpm for 10 minutes. The supernatant was transferred to a spit tube and was evaporated to dryness with nitrogen gas while the tube was immersed in a warm bath at about 60° C. Thereto were added 200 μL of methanol and 100 μL of distilled water, thereby the volume being made 300 μL. (3) One mL of 0.1N hydrochloric acid was added to 2 mL of the stock solution and the resultant one was transferred to a plastic tube and kept in a drive-lock bath at 96.5° C. for 1 hour to effect hydrolysis. Five mL of ethyl acetate was added thereto and the resultant one was centrifuged at 3000 rpm for 10 minutes. The supernatant was transferred to a spit tube and was evaporated to dryness with nitrogen gas while the tube was immersed in a warm bath at about 60° C. Thereto were added 200 μL of methanol and 100 μL of distilled water, thereby the volume being made 300 μL. The samples from (1) to (3) were measured by high-performance liquid chromatography (HPLC) (analytical conditions: the measurement was performed at a flow rate of 1.0 mL/min at a column temperature of 40° C. using a wavelength of 350 nm, using Liquid A (80% by volume of methanol/5% by volume of acetic acid) or Liquid B (10% by volume of methanol/5% by volume of acetic acid) as an eluent, and using a column of Hichrom5C18, T898, 4.6 mm×[…] (manufactured by LLOYD′S REGISTER QUALITY COMPANY) and each concentration was calculated based on standard solutions. In Table 1, the most highly extracted value was cited among the results measured with each of the extraction methods (1) to (3). Moreover, the sum of individual concentration of polyphenol used in this time was regarded as the total amount of polyphenol.
(§2) Two containers (length: 0.75 m, width 0.5 m) were provided and soil was placed in each of them. A Chemical fertilizer (nitrogen content:phosphorus content:potassium content=15:15:15 as mass ratio) was used as a base fertilizer and seeds of parsley (Umbelliferae, genus parsley, race Paramount) were planted according to a conventional method and water was applied once a day by means of a sprinkling can. Prior to one month from harvest, treatment was conducted once a week with 50 mL per container of each aqueous solution containing 0 ppm (control) or 1 ppm of 5-aminolevulinic acid hydrochloride. After harvest, the content of polyphenol was analyzed in the same manner as in Example 1.

[2] = test system: green pepper; test: Amount of polyphenol in green pepper after ALA treatment (HPLC); type: in vivo, green pepper (Solanaceae, genus cayenne, race Miogi)
Method: as §1

[3] = test system: pepper; test: Amount of polyphenol in pepper after ALA treatment (HPLC); type: in vivo, pepper (Solanaceae, genus cayenne; conditions: pepper (race Habanero), 1 ppm
Method: as §1
as §2, with “young plants” for “seeds”, “pepper (Solanaceae,” for “parsley (Umbelliferae,”, “cayenne,” for “parsley,”, “Habanero)” for “Paramount)”

[4] = test system: green soybean; test: Amount of polyphenol in green soybean after ALA treatment (HPLC); type: in vivo, green soybean (Lagminosae, genus soybean, race Hakusan); conditions: 1 ppm, 100 L/tan once a fortnight after flowering
Method: as §1
(§3) Prior to 210 days from harvest, treatment to green soybean (Lagminosae, genus soybean, race Hakusan) grown in a production farm field was conducted once a fortnight after flowering with a spraying amount of 100 L/tan of each aqueous solution containing 0 ppm (control) or 1 ppm of 5-aminolevulinic acid hydrochloride. After harvest, the content of polyphenol was analyzed by HPLC in the same manner as in Example 1.

[5] = test system: asparagus; test: Amount of polyphenol in asparagus after ALA treatment (HPLC); type: in vivo, asparagus (Liliaceae, genus asparagus, race Welcome); conditions: 3 ppm
Method: as §1
Prior to 150 days from harvest, treatment to tetraennial-root asparagus (Liliaceae, genus asparagus, race Welcome) grown in a vertical stem form in a greenhouse was conducted once a fortnight with a spraying amount of 100 L/tan of each solution containing 0 ppm (control) or 3 ppm of 5-aminolevulinic acid hydrochloride. After harvest, the content of polyphenol was analyzed in the same manner as in Example 1.

[6] = test system: tea; test: Amount of polyphenol in tealeaf after ALA treatment (HPLC); type: in vivo, tea (Camelliaceae, genus camellia, race Yabukita); conditions: 3 ppm
Method: as §1
as §3, with “to tea (Camelliaceae,” for “to green soybean (Lagminosae,”, “genus camellia,” for “genus soybean,”, “race Yabukita)” for “race Hakusan)”, “a month” for “a fortnight after flowering”, “or 3” for “or 1”

[7] = test system: pear; test: Amount of polyphenol in pear after ALA treatment (HPLC); type: in vivo, pear (Rosaceae, genus pear, race Kosui); conditions: 3 ppm
Method: as §1
Prior to 150 days from harvest, treatment to pear
([…], genus pear, race Kosui) grown in a production farm field was conducted once a fortnight with a spraying amount of 300 L/tan of each aqueous solution containing 0 ppm (control) or 3 ppm of 5-aminolevulinic acid hydrochloride to which a spreading agent, Approach BI (manufactured by Kao Corporation) had been added in a ratio of 0.1% by mass. After harvest, the content of polyphenol was analyzed by HPLC in the same manner as in Example 1.

[8] = 50 mL per container once a week from one month before harvest, HPLC
[9] = 50 mL per container once a week from one month before harvest, sum of the individual polyphenols
[10] = 50 mL per container once a week, versus 0 ppm control
[11] = 1 ppm, 50 mL per container once a week from one month before harvest, HPLC, highest of extraction methods (1)-(3)
[12] = greenhouse, 100 L/tan once a fortnight from 150 days before harvest, HPLC
[13] = 100 L/tan once a month from 210 days before harvest, HPLC
[14] = 300 L/tan once a fortnight from 150 days before harvest, HPLC

Structure (SMILES): Cl.NCC(=O)CCC(=O)O [ALA, 5-aminolevulinic acid hydrochloride]
- Apigenin amount in parsley [1, 8]: 1099 ng/g
- Caffeic acid amount in parsley [1, 8]: 4240 ng/g
- Chlorogenic acid amount in parsley [1, 8]: 20820 ng/g
- Ferulic acid amount in parsley [1, 8]: 0 ng/g
- Hesperetin amount in parsley [1, 8]: 110685 ng/g
- Isorhamnetin amount in parsley [1, 8]: 4388 ng/g
- Kaempferol amount in parsley [1, 8]: 10321 ng/g
- Luteolin amount in parsley [1, 8]: 2733 ng/g
- Quercetin amount in parsley [1, 8]: 37699 ng/g
- Rutin amount in parsley [1, 8]: 28977 ng/g
- Total amount of polyphenol in parsley [1, 9]: 220962 ng/g
- ALA/control ratio of total amount of polyphenol in parsley [1, 10]: 3.5
- Total amount of polyphenol in green pepper ([2]; 1 ppm once a week from one month before harvest, sum of the individual polyphenol concentrations): 48824 ng/g
- ALA/control ratio of total amount of polyphenol in green pepper ([2]; 1 ppm once a week from one month before harvest, versus 0 ppm control): 9.4
- Apigenin amount in green pepper [2, 11]: 0 ng/g
- Caffeic acid amount in green pepper [2, 11]: 276 ng/g
- Chlorogenic acid amount in green pepper [2, 11]: 4856 ng/g
- Ferulic acid amount in green pepper [2, 11]: 5680 ng/g
- Hesperetin amount in green pepper [2, 11]: 236 ng/g
- Isorhamnetin amount in green pepper [2, 11]: 1849 ng/g
- Kaempferol amount in green pepper [2, 11]: 668 ng/g
- Luteolin amount in green pepper [2, 11]: 644 ng/g
- Quercetin amount in green pepper [2, 11]: 28919 ng/g
- Rutin amount in green pepper [2, 11]: 5696 ng/g
- Apigenin amount in pepper [3, 8]: 2570 ng/g
- Caffeic acid amount in pepper [3, 8]: 5520 ng/g
- Chlorogenic acid amount in pepper [3, 8]: 18020 ng/g
- Ferulic acid amount in pepper [3, 8]: 9270 ng/g
- Hesperetin amount in pepper [3, 8]: 0 ng/g
- Isorhamnetin amount in pepper [3, 8]: 270 ng/g
- Kaempferol amount in pepper [3, 8]: 0 ng/g
- Luteolin amount in pepper [3, 8]: 62060 ng/g
- Quercetin amount in pepper [3, 8]: 26700 ng/g
- Rutin amount in pepper [3, 8]: 457080 ng/g
- Total amount of polyphenol in pepper [3, 9]: 581490 ng/g
- ALA/control ratio of total amount of polyphenol in pepper [3, 10]: 1.4
- Apigenin amount in green soybean ([4]; HPLC): 11 ng/g
- Caffeic acid amount in green soybean ([4]; HPLC): 0 ng/g
- Chlorogenic acid amount in green soybean ([4]; HPLC): 17 ng/g
- Ferulic acid amount in green soybean ([4]; HPLC): 3963 ng/g
- Hesperetin amount in green soybean ([4]; HPLC): 1841 ng/g
- Isorhamnetin amount in green soybean ([4]; HPLC): 0 ng/g
- Kaempferol amount in green soybean ([4]; HPLC): 0 ng/g
- Luteolin amount in green soybean ([4]; HPLC): 19 ng/g
- Quercetin amount in green soybean ([4]; HPLC): 261 ng/g
- Rutin amount in green soybean ([4]; HPLC): 1032 ng/g
- Total amount of polyphenol in green soybean ([4]; sum of the individual polyphenols): 7143 ng/g
- ALA/control ratio of total amount of polyphenol in green soybean ([4]; versus 0 ppm control): 1.4
- ALA/control ratio of total amount of polyphenol in asparagus ([5]; 100 L/tan once a fortnight, versus 0 ppm control): 2.3
- Apigenin amount in asparagus [5, 12]: 456 ng/g
- Caffeic acid amount in asparagus [5, 12]: 0 ng/g
- Chlorogenic acid amount in asparagus [5, 12]: 2983 ng/g
- Ferulic acid amount in asparagus [5, 12]: 9899 ng/g
- Hesperetin amount in asparagus [5, 12]: 20198 ng/g
- Isorhamnetin amount in asparagus [5, 12]: 1022 ng/g
- Kaempferol amount in asparagus [5, 12]: 723 ng/g
- Luteolin amount in asparagus [5, 12]: 1923 ng/g
- Quercetin amount in asparagus [5, 12]: 5533 ng/g
- Rutin amount in asparagus [5, 12]: 40234 ng/g
- Total amount of polyphenol in asparagus ([5]; greenhouse, 100 L/tan once a fortnight from 150 days before harvest, sum of the individual polyphenols): 82971 ng/g
- Apigenin amount in tealeaf [6, 13]: 915 ng/g
- Caffeic acid amount in tealeaf [6, 13]: 0 ng/g
- Chlorogenic acid amount in tealeaf [6, 13]: 3474 ng/g
- Ferulic acid amount in tealeaf [6, 13]: 17172 ng/g
- Hesperetin amount in tealeaf [6, 13]: 25887 ng/g
- Isorhamnetin amount in tealeaf [6, 13]: 3881 ng/g
- Kaempferol amount in tealeaf [6, 13]: 970 ng/g
- Luteolin amount in tealeaf [6, 13]: 2181 ng/g
- Quercetin amount in tealeaf [6, 13]: 8249 ng/g
- Rutin amount in tealeaf [6, 13]: 4519 ng/g
- Total amount of polyphenol in tealeaf ([6]; 100 L/tan once a month from 210 days before harvest, sum of the individual polyphenols): 67248 ng/g
- ALA/control ratio of total amount of polyphenol in tealeaf ([6]; 100 L/tan once a month, versus 0 ppm control): 1.1
- Apigenin amount in pear [7, 14]: 95 ng/g
- Caffeic acid amount in pear [7, 14]: 8400 ng/g
- Chlorogenic acid amount in pear [7, 14]: 1819 ng/g
- Ferulic acid amount in pear [7, 14]: 12456 ng/g
- Hesperetin amount in pear [7, 14]: 81 ng/g
- Isorhamnetin amount in pear [7, 14]: 567 ng/g
- Kaempferol amount in pear [7, 14]: 18 ng/g
- Luteolin amount in pear [7, 14]: 61 ng/g
- Quercetin amount in pear [7, 14]: 111 ng/g
- Rutin amount in pear [7, 14]: 1595 ng/g
- Total amount of polyphenol in pear ([7]; 300 L/tan once a fortnight from 150 days before harvest, sum of the individual polyphenols): 25202 ng/g
- ALA/control ratio of total amount of polyphenol in pear ([7]; 300 L/tan once a fortnight, versus 0 ppm control): 2.3
